Measured values reported in patent publication US8124361B2, “Methods of screening for sweet taste modulators” (Givaudan SA, priority 2006, dated 2012).

How the values were obtained:
[1] = tested on: sweet sensitive panelists; assay: Ranking test of sweetness isointensity (R-index), sensory panel; format: in vivo, human; settings: for sample sweetness (0.5% sucrose) / sample sweetness (p-ethoxybenzaldehyde, 75 ppm): nose clips; for sweetness equivalent to sucrose (isointensity): by interpolation
Procedure: (§1) The sensory evaluation was conducted using a ranking method. Samples at ambient temperature were randomly presented in 15 ml blind aliquots (unidentifiable by panelists). Panels consisted of 10 sweet sensitive subjects and samples were presented in 3 replications over 1 session. After tasting each sample, the mouth was rinsed thoroughly with water at ambient temperature prior to tasting the next sample. […] They were asked to rank the samples from low to high with respect to perceived sweet taste.
as §1, with “taste. […] From ranking-style sensory tests, a matrix of responses (see table X below) is constructed such that each cell contains the number of times a given sample was ranked at a particular location.” for “taste.”
Essentially, the R-index is a measure of difference between two samples. The R-index has a chance level of detection of 50%. […] The critical value is the statistically relevant value that the derived R-index must deviate from (i.e greater or less than) in order to be considered significant.

[2] = tested on: sweet sensitive panelists; assay: Paired comparison of sweetness versus sucrose, sensory panel; format: in vivo, human
[3] = target: T1, transmembrane domains of TAS1R (Homo sapiens, UniProt Q7RTX0+Q8TE23, C757R); assay: Identification of candidate sweetness enhancers that bind to the transmembrane domains; format: binding; settings: identified by the applicants as candidate sweetness enhancers
T1 sequence (Q8TE23 20-839): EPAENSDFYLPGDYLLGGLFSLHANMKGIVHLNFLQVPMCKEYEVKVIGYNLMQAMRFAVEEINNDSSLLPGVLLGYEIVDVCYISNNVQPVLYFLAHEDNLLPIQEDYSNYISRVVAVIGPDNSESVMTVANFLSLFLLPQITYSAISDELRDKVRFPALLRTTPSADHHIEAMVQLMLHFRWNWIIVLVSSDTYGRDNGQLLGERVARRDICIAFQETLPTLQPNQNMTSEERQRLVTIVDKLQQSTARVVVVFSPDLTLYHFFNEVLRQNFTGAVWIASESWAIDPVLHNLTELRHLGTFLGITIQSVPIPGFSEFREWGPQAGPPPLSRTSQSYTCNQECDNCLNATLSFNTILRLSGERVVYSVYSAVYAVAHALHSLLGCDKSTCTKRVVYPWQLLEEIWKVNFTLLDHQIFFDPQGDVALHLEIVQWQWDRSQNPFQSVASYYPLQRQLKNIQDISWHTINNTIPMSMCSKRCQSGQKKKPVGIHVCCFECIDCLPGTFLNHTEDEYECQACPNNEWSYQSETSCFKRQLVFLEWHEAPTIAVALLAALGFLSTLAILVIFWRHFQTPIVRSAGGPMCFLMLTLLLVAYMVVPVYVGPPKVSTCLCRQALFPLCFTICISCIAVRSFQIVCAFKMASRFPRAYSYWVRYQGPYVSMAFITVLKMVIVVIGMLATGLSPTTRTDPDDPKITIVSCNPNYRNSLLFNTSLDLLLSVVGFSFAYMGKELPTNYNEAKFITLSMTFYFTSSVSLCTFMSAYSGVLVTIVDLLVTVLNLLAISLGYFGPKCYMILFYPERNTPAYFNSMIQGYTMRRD
T1 sequence (Q7RTX0 21-852 C757R): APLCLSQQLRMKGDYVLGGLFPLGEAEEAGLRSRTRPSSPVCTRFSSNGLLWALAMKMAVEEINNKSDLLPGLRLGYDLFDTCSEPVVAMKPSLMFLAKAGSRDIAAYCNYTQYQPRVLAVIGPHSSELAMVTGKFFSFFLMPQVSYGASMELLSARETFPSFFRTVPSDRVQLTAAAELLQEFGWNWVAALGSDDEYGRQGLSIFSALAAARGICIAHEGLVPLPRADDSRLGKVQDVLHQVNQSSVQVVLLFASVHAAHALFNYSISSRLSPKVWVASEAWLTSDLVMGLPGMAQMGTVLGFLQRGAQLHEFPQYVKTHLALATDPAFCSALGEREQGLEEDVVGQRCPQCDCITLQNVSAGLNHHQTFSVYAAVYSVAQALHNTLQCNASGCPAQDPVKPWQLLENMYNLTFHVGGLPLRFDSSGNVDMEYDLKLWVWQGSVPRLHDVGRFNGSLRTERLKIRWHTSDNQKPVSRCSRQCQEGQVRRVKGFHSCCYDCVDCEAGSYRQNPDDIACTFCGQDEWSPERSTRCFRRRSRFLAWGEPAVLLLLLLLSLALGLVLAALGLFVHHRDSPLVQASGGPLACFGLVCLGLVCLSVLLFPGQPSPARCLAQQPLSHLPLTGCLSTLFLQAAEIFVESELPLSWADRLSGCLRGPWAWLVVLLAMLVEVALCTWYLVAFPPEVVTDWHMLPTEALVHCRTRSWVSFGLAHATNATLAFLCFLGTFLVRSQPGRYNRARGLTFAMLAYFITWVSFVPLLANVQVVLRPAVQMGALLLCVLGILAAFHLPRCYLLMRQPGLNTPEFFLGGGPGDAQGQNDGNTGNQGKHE

CCOc1ccc(C=O)cc1 [p-ethoxybenzaldehyde]
sample sweetness (0.5% sucrose) ([1]; 0.5% sucrose sample ranked against 100 ppm p-ethoxybenzaldehyde in water): isosweet | sample sweetness (0.5% sucrose) ([1]; 0.5% sucrose sample ranked against 150 ppm p-ethoxybenzaldehyde in water): less sweet | sweetness isointensity to sucrose ([1]; 7% sucrose and 75 ppm p-ethoxybenzaldehyde): 8 % sucrose | sample sweetness (p-ethoxybenzaldehyde, 75 ppm) ([1]; 75 ppm in water vs 0.5% sucrose): less sweet | sample sweetness (p-ethoxybenzaldehyde, 75 ppm) ([1]; 75 ppm in water vs 1% sucrose): less sweet | p-ethoxybenzaldehyde sample sweetness ([1]; 75 ppm p-ethoxybenzaldehyde in 7% sucrose vs 7% sucrose): sweeter | p-ethoxybenzaldehyde sample sweetness ([1]; 75 ppm p-ethoxybenzaldehyde in 7% sucrose vs 8% sucrose): isosweet | p-ethoxybenzaldehyde sample sweetness ([1]; 75 ppm p-ethoxybenzaldehyde in 7% sucrose vs 9% sucrose): less sweet | p-ethoxybenzaldehyde sample sweetness ([1]; 75 ppm p-ethoxybenzaldehyde in 7% sucrose vs 10% sucrose): less sweet | p-ethoxybenzaldehyde sample sweetness ([1]; 75 ppm p-ethoxybenzaldehyde in 7% sucrose vs 11% sucrose): less sweet | sweetness equivalent to sucrose (isointensity) ([1]; 75 ppm p-ethoxybenzaldehyde in water, below the detection threshold for sweet): 0.25 % sucrose | sample sweetness (p-ethoxybenzaldehyde, 100 ppm) ([1]; 100 ppm in water vs 150 ppm cyclamate): isosweet | sample sweetness (p-ethoxybenzaldehyde, 100 ppm) ([1]; 100 ppm in water vs 200 ppm cyclamate): less sweet | sample sweetness (p-ethoxybenzaldehyde, 100 ppm) ([1]; 100 ppm in water vs 250 ppm cyclamate): less sweet | cyclamate equivalent in sweetness added ([1]; 100 ppm p-ethoxybenzaldehyde added to 1700 ppm cyclamate): 400 ppm cyclamate | p-ethoxybenzaldehyde sample sweetness ([1]; 100 ppm p-ethoxybenzaldehyde in 1700 ppm cyclamate vs 1700 ppm cyclamate): sweeter | p-ethoxybenzaldehyde sample sweetness ([1]; 100 ppm p-ethoxybenzaldehyde in 1700 ppm cyclamate vs 1900 ppm cyclamate): sweeter | p-ethoxybenzaldehyde sample sweetness ([1]; 100 ppm p-ethoxybenzaldehyde in 1700 ppm cyclamate vs 2100 ppm cyclamate): isosweet | p-ethoxybenzaldehyde sample sweetness ([1]; 100 ppm p-ethoxybenzaldehyde in 1700 ppm cyclamate vs 2300 ppm cyclamate): less sweet | p-ethoxybenzaldehyde sample sweetness ([1]; 100 ppm p-ethoxybenzaldehyde in 1700 ppm cyclamate vs 2500 ppm cyclamate): less sweet | sweetness A versus B ([1]; 600 ppm (A) vs 700 ppm (B) p-ethoxybenzaldehyde in water): less sweet than | sweetness A versus B ([1]; 700 ppm (A) vs 800 ppm (B) p-ethoxybenzaldehyde in water): less sweet than | sweetness A versus B ([1]; 800 ppm (A) vs 900 ppm (B) p-ethoxybenzaldehyde in water): less sweet than | sweetness A versus B ([1]; 900 ppm (A) vs 1000 ppm (B) p-ethoxybenzaldehyde in water): less sweet than | cyclamate isointensity ([1]; 1700 ppm cyclamate+100 ppm p-ethoxybenzaldehyde): 2100 ppm cyclamate

C[C@@H]1O[C@@H](O[C@H]2[C@H](Oc3cc(O)c(C(=O)CCc4ccc(O)cc4)c(O)c3)O[C@H](CO)[C@@H](O)[C@@H]2O)[C@H](O)[C@H](O)[C@H]1O [NarDHC, naringin dihydrochalcone]
sweetness equivalent to sucrose (isointensity) ([1]; 60 ppm NarDHC in water): about 1.25 % sucrose | Result of comparison ([2]; 45 ppm NarDHC in water vs 0% sucrose): weakly sweeter | Result of comparison ([2]; 45 ppm NarDHC in water vs 0.5% sucrose): isosweet | Result of comparison ([2]; 45 ppm NarDHC in water vs 1% sucrose): less sweet | Result of comparison ([2]; 50 ppm NarDHC in water vs 0.5% sucrose): notably sweeter | Result of comparison ([2]; 50 ppm NarDHC in water vs 1% sucrose): less sweet | Result of comparison ([2]; 55 ppm NarDHC in water vs 0.5% sucrose): notably sweeter | Result of comparison ([2]; 55 ppm NarDHC in water vs 1% sucrose): isosweet | Result of comparison ([2]; 60 ppm NarDHC in water vs 1% sucrose): notably sweeter | Result of comparison ([2]; 60 ppm NarDHC in water vs 1.5% sucrose): significantly less sweet | binding to the transmembrane domains of TAS1R [3]: bind to the transmembrane domains of TAS1R

C[C@H](CC[C@@H](O[C@@H]1O[C@H](CO[C@@H]2O[C@H](CO)[C@@H](O)[C@H](O)[C@H]2O)[C@@H](O)[C@H](O)[C@H]1O[C@@H]1O[C@H](CO)[C@@H](O)[C@H](O)[C@H]1O)C(C)(C)O)[C@H]1CC[C@@]2(C)[C@@H]3CC=C4[C@@H](CC[C@H](O[C@@H]5O[C@H](CO[C@@H]6O[C@H](CO)[C@@H](O)[C@H](O)[C@H]6O)[C@@H](O)[C@H](O)[C@H]5O)C4(C)C)[C@]3(C)[C@H](O)C[C@]12C [mogroside V]
binding to the transmembrane domains of TAS1R [3]: bind to the transmembrane domains of TAS1R

C=C1C[C@@]23CC[C@H]4[C@@](C)(CCC[C@@]4(C)C(=O)O[C@@H]4O[C@H](CO)[C@@H](O)[C@H](O)[C@H]4O)[C@@H]2CC[C@]1(O[C@@H]1O[C@H](CO)[C@@H](O)[C@H](O)[C@H]1O[C@@H]1O[C@H](CO)[C@@H](O)[C@H](O)[C@H]1O)C3 [stevioside]
binding to the transmembrane domains of TAS1R [3]: bind to the transmembrane domains of TAS1R

C=C1C[C@@]23CC[C@H]4[C@@](C)(CCC[C@@]4(C)C(=O)O[C@@H]4O[C@H](CO)[C@@H](O)[C@H](O)[C@H]4O)[C@@H]2CC[C@]1(O[C@@H]1O[C@H](CO)[C@@H](O)[C@H](O)[C@H]1O)C3 [rubusoside]
binding to the transmembrane domains of TAS1R [3]: bind to the transmembrane domains of TAS1R

C=C1C[C@@]23CC[C@H]4[C@@](C)(CCC[C@@]4(C)C(=O)O[C@@H]4O[C@H](CO)[C@@H](O)[C@H](O)[C@H]4O)[C@@H]2CC[C@]1(O[C@@H]1O[C@H](CO)[C@@H](O)[C@H](O[C@@H]2O[C@H](CO)[C@@H](O)[C@H](O)[C@H]2O)[C@H]1O[C@@H]1O[C@H](CO)[C@@H](O)[C@H](O)[C@H]1O)C3 [rebaudioside A]
binding to the transmembrane domains of TAS1R [3]: bind to the transmembrane domains of TAS1R
